# Source: patent US20130184280A1, “SUBSTITUTED THIAZOLES AS VEGFR2 KINASE INHIBITORS” (TELIK, INC., priority 2011, published 2013)
# Legend:
# [1] = In Vitro Cytotoxicity Assay HCT116 (CellTiter-Glo); assay type: cell-based; settings: human, HCT116 colon carcinoma cells, cultured three days
# Procedure: (§1) The cell lines HL60 (human promyelocytic leukemia) and HCT116 (human colon carcinoma) were obtained from the American Type Culture Collection, Manassas, Va., U.S.A. All products were used in accordance with manufacturer's directions. The cytotoxicity assays were conducted in triplicate, in each case with solvent control.
# (§2) Log-phase cells were trypsinized, collected by centrifugation, and resuspended in a small volume of fresh medium, and the density of viable cells was determined following Trypan Blue staining Cells were diluted in fresh media, the test compounds (concentrations between 0.1 μM and 200 μM, dissolved in DMSO, 50 μL) added immediately after dilution to achieve a final DMSO concentration of 0.5%, then the suspensions added at 150 μL/well to 96-well plates, and incubated overnight to allow attachment in the case of adherent cells. The cells were cultured for three days (about three doubling times). The cells were then collected by centrifugation, and 100 μL of the culture supernatant was replaced by the CellTiter-Glo reagent. After incubation for 15 minutes at room temperature, the plate was read with a luminometer. […] The table gives cytotoxicity IC50s in μm.
# [2] = In Vitro Cytotoxicity Assay HL60 (CellTiter-Glo); assay type: cell-based; settings: human, HL60 promyelocytic leukemia cells; HL 60 cells, cultured three days
# Procedure: as §1, §2
# [3] = biological target: T1, VEGFR2 kinase (Homo sapiens, UniProt P35968); assay: In Vitro VEGFR2 Kinase Assay; assay type: biochemical; settings: FP; CSKtide substrate, 60 minutes at room temperature
# T1 construct: purchased InVitrogen
# Procedure: In Vitro VEGFR2 Kinase Assay
# 50 ng/well VEGFR2 kinase (from InVitrogen) was mixed in buffer (14.5 μL/well). To this were added, 0.5 μL of the compound of this invention at a concentration of 2.5% in DMSO. After incubatiuon for 5 minutes at room temperature, 5 μL of substrate (CSKtide, 400 nM) and 8 μL ATP were added. The mixture was incubated for 60 minutes at room temperature and 60 uL of binding reagent (beads) was added. After incubation overnight at room temperature, the plate was read with a LJL plate reader.
# T1 sequence (P35968 20-1356): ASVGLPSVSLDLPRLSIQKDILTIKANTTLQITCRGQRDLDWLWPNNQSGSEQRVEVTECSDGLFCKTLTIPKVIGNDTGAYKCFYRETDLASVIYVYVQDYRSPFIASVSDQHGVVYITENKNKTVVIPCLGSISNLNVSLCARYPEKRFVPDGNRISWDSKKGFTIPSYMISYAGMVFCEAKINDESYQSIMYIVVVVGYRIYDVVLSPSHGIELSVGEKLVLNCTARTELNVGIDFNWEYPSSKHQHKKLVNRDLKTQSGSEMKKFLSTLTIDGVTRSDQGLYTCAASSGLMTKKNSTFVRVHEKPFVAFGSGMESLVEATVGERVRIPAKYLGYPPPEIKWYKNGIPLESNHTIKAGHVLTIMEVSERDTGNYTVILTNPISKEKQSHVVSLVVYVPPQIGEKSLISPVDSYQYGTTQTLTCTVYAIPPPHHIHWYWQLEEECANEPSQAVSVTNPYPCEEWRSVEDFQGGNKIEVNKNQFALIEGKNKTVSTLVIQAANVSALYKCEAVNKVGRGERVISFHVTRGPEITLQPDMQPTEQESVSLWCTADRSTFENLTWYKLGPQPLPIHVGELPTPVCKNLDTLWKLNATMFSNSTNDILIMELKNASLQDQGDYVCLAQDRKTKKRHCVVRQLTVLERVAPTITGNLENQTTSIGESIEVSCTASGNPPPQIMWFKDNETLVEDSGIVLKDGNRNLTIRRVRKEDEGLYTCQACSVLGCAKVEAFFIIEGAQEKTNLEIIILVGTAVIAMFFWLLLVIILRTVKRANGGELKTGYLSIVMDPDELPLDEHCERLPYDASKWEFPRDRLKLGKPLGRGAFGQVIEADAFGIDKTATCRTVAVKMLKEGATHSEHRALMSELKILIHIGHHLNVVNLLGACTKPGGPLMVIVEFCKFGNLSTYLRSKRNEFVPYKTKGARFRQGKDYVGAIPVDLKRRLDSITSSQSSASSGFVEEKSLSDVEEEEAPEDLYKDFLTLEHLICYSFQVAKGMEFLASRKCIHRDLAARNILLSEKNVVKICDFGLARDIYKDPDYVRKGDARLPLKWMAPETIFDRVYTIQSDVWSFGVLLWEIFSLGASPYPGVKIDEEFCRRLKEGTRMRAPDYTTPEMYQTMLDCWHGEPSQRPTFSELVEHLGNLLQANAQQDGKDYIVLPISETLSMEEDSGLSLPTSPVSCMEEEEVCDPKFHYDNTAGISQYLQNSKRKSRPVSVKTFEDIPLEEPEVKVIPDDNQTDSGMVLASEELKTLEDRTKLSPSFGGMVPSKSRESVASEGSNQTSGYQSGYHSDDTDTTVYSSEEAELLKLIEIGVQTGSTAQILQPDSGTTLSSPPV
IC50 [3],Structure (SMILES),IC50 at 3 days [1],IC50 at 3 days [2]
,Nc1ncncc1-c1nc(-c2ccc(NC(=O)Nc3cccc(C(F)(F)F)c3)cc2)cs1 [Compound 1],4000 nM,900 nM
10 nM,Nc1ncncc1-c1nc(-c2cccc(NC(=O)Nc3ccccc3)c2)cs1 [Compound 4],6000 nM,200 nM
30 nM,Nc1ncncc1-c1nc(-c2cccc(NC(=O)c3ccc(F)cc3)c2)cs1 [Compound 5],30000 nM,
20 nM,"Nc1ncncc1-c1nc(-c2cccc(NC(=O)c3cccc(Cl)c3)c2)cs1 [Compound 6, N-(3-(2-(4-aminopyrimidin-5-yl)thiazol-4-yl)phenyl)-3-chlorobenzamide]",> 50000 nM,3000 nM
70 nM,Nc1ncncc1-c1nc(-c2cccc(NC(=O)c3ccc(Cl)cc3)c2)cs1 [Compound 8],20000 nM,300 nM
300 nM,Nc1ncncc1-c1nc(-c2cccc(NC(=O)c3ccc(F)c(F)c3)c2)cs1 [Compound 9],50000 nM,20000 nM
20 nM,Nc1ncncc1-c1nc(-c2cccc(NC(=O)Nc3ccc(F)c(C(F)(F)F)c3)c2)cs1 [Compound 10],2000 nM,500 nM
10 nM,Cc1ccc(NC(=O)Nc2cccc(-c3csc(-c4cncnc4N)n3)c2)cc1Cl [Compound 11],3000 nM,
100 nM,Nc1ncncc1-c1nc(-c2cccc(NC(=O)Nc3cccc(F)c3)c2)cs1 [Compound 12],40000 nM,100 nM
200 nM,Nc1ncncc1-c1nc(-c2cccc(NC(=O)c3ccc([N+](=O)[O-])cc3)c2)cs1 [Compound 13],> 50000 nM,> 50000 nM
30 nM,COc1ccc(NC(=O)Nc2cccc(-c3csc(-c4cncnc4N)n3)c2)cc1 [Compound 14],20000 nM,300 nM
400 nM,Nc1ncncc1-c1nc(-c2cccc(NC(=O)c3ccc(-c4ccccc4)cc3)c2)cs1 [Compound 15],3000 nM,1000 nM
4 nM,Nc1ncncc1-c1nc(-c2cccc(NC(=O)Nc3ccc(Cl)cc3)c2)cs1 [Compound 16],10000 nM,1000 nM
30 nM,Nc1ncncc1-c1nc(-c2cccc(NC(=O)Nc3ccccc3Cl)c2)cs1 [Compound 18],30000 nM,500 nM
70 nM,Cc1ccccc1NC(=O)Nc1cccc(-c2csc(-c3cncnc3N)n2)c1 [Compound 19],> 50000 nM,900 nM
50 nM,Nc1ncncc1-c1nc(-c2cccc(NC(=O)Nc3ccccc3C(F)(F)F)c2)cs1 [Compound 20],50000 nM,700 nM
200 nM,Nc1ncncc1-c1nc(-c2cccc(NC(=O)c3ccccn3)c2)cs1 [Compound 21],> 50000 nM,4000 nM
20 nM,Nc1ncncc1-c1nc(-c2cccc(NC(=O)Nc3ccc(Cl)c(C(F)(F)F)c3)c2)cs1 [Compound 22],1000 nM,1000 nM
500 nM,Nc1ncncc1-c1nc(-c2cccc(NC(=O)c3cccnc3)c2)cs1 [Compound 23],10000 nM,
,Nc1ncncc1-c1nc(-c2cccc(NC(=O)c3ccncc3)c2)cs1 [Compound 24],30000 nM,
300 nM,COc1ccccc1C(=O)Nc1cccc(-c2csc(-c3cncnc3N)n2)c1 [Compound 25],10000 nM,
40 nM,COc1ccccc1NC(=O)Nc1cccc(-c2csc(-c3cncnc3N)n2)c1 [Compound 26],7000 nM,400 nM
40 nM,Cc1ccc(NC(=O)Nc2cccc(-c3csc(-c4cncnc4N)n3)c2)cc1C [Compound 27],2000 nM,4000 nM
70 nM,CCc1ccc(NC(=O)Nc2cccc(-c3csc(-c4cncnc4N)n3)c2)cc1 [Compound 28],8000 nM,1000 nM
60 nM,N#Cc1ccc(NC(=O)Nc2cccc(-c3csc(-c4cncnc4N)n3)c2)cc1 [Compound 29],> 50000 nM,
400 nM,N#Cc1cccc(NC(=O)Nc2cccc(-c3csc(-c4cncnc4N)n3)c2)c1 [Compound 30],> 50000 nM,
60 nM,Nc1ncncc1-c1nc(-c2cccc(NC(=O)Nc3cccc(Cl)c3)c2)cs1 [Compound 31],1000 nM,

IC50 [3],Structure (SMILES),IC50 at 3 days [1],IC50 at 3 days [2]
50 nM,Nc1ncncc1-c1nc(-c2cccc(NC(=O)Nc3ccccc3[N+](=O)[O-])c2)cs1 [Compound 33],> 50000 nM,
300 nM,CCCCOC(=O)c1ccccc1NC(=O)Nc1cccc(-c2csc(-c3cncnc3N)n2)c1 [Compound 36],10000 nM,
200 nM,CCc1cccc(C)c1NC(=O)Nc1cccc(-c2csc(-c3cncnc3N)n2)c1 [Compound 38],> 50000 nM,
20 nM,Nc1ncncc1-c1nc(-c2cccc(NC(=O)Nc3cccc(C(F)(F)F)c3)c2)cs1 [Compound 39],2000 nM,1000 nM
100 nM,Nc1ncncc1-c1nc(-c2cccc(NC(=O)Cc3cccc(C(F)(F)F)c3)c2)cs1 [Compound 40],7000 nM,
10 nM,Cc1cccc(C(=O)Nc2cccc(-c3csc(-c4cncnc4N)n3)c2)c1 [Compound 41],20000 nM,
100 nM,CCOC(=O)c1cccc(NC(=O)Nc2cccc(-c3csc(-c4cncnc4N)n3)c2)c1 [Compound 42],4000 nM,
20 nM,CC(C)(O)c1cccc(NC(=O)Nc2cccc(-c3csc(-c4cncnc4N)n3)c2)c1 [Compound 43],5000 nM,
30 nM,Nc1ncncc1-c1nc(-c2cccc(NC(=O)Nc3cccc(CO)c3)c2)cs1 [Compound 44],30000 nM,
40 nM,Nc1ncncc1-c1nc(-c2cccc(NC(=O)Cc3ccccc3)c2)cs1 [Compound 45],30000 nM,
90 nM,Cc1nc(-c2cccc(NC(=O)Nc3cccc(-c4csc(-c5cncnc5N)n4)c3)c2)no1 [Compound 47],> 50000 nM,
400 nM,Cc1cccc(NC(=O)c2cccc(-c3csc(-c4cncnc4N)n3)c2)c1 [Compound 49],10000 nM,
500 nM,Nc1ncncc1-c1nc(-c2cccc(NC(=O)c3cccc(CN4CCOCC4)c3)c2)cs1 [Compound 52],4000 nM,1000 nM
400 nM,CN(C)Cc1cccc(C(=O)Nc2cccc(-c3csc(-c4cncnc4N)n3)c2)c1 [Compound 55],2000 nM,400 nM
100 nM,Nc1ncncc1-c1nc(-c2cccc(NC(=O)c3cccc(CNCCO)c3)c2)cs1 [Compound 56],3000 nM,2000 nM
60 nM,Nc1ncncc1-c1nc(-c2cccc(NC(=O)NCc3ccccc3)c2)cs1 [Compound 58],4000 nM,400 nM
300 nM,CCOC(=O)CNC(=O)Nc1cccc(-c2csc(-c3cncnc3N)n2)c1 [Compound 59],30000 nM,
80 nM,CCNC(=O)Nc1cccc(-c2csc(-c3cncnc3N)n2)c1 [Compound 60],> 50000 nM,
300 nM,CC(=O)Nc1cccc(-c2csc(-c3cncnc3N)n2)c1 [Compound 61],40000 nM,
20 nM,Nc1ncncc1-c1nc(-c2cccc(NC(=O)C3CCCCC3)c2)cs1 [Compound 62],> 50000 nM,
70 nM,Nc1ncncc1-c1nc(-c2cccc(NC(=O)NC3CCCC3)c2)cs1 [Compound 63],7000 nM,
300 nM,Nc1ncncc1-c1nc(-c2cccc(NC(=O)C3CCCC3)c2)cs1 [Compound 64],> 50000 nM,
40 nM,Nc1ncncc1-c1nc(-c2cccc(NC(=O)NC3CCCCC3)c2)cs1 [Compound 65],8000 nM,1000 nM
300 nM,Nc1ncncc1-c1nc(-c2cccc(NC(=O)CN3CCCCC3)c2)cs1 [Compound 67],10000 nM,
200 nM,Nc1ncncc1-c1nc(-c2cccc(NC(=O)N3CCCCC3)c2)cs1 [Compound 68],20000 nM,
400 nM,Nc1ncncc1-c1nc(-c2cccc(NC(=O)N3CCC(O)CC3)c2)cs1 [Compound 69],4000 nM,
60 nM,Nc1ncncc1-c1nc(-c2cccc(NC(=O)Nc3ccc4c(c3)OCO4)c2)cs1 [Compound 72],2000 nM,300 nM
